Assays:
human SGLT2 = molecular target: T1, human SGLT2 (Homo sapiens, UniProt P31639); experiment: Assay for SGLT2 inhibition (14C-AMG uptake in CHOK1 cells expressing human SGLT2); format: cell-based; conditions: CHOK1 cells expressing human SGLT2; 14C-AMG uptake 0.5 mM, 2 hours at 37° C.; read-out: IC50
T1 construct: expressed in transfected cells; host or cells: CHOK1 (CHO-K1) cells, kept under Geneticin selection
T1 sequence (P31639 1-672): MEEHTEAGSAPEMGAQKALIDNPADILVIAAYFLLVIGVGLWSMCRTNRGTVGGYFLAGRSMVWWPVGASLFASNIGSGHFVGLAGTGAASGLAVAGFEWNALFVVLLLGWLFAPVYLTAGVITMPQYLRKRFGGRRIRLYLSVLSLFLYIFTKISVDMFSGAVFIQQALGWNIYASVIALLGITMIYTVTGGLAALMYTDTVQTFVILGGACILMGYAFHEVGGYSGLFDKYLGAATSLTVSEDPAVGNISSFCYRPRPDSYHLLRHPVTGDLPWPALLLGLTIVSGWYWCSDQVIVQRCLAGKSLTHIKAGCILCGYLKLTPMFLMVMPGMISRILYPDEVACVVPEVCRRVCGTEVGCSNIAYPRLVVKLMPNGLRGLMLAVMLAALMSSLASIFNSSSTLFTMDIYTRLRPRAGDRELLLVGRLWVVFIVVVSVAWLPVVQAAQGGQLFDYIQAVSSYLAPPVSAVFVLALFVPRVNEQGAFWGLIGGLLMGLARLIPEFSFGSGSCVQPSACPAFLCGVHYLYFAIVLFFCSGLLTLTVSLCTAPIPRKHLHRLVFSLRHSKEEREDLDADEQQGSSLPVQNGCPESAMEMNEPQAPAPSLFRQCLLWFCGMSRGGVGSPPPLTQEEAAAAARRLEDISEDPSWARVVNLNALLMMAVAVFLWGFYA
Method: 1. Assay for SGLT2 Inhibition
Compounds described in the above examples were used for the SGLT2 inhibition assay.
CHOK1 cells expressing human SGLT2 were seeded in 24-well plates at a density of 400,000 cells/well in F-12 nutrient mixture (Ham's F-12) containing 10% fetal bovine serum, 400 μg/ml Geneticin, 50 units/ml sodium penicillin G (Gibco-BRL) and 50 μg/ml streptomycin sulfate. […] Test compounds were dissolved in DMSO. The final concentration of DMSO was 0.5%. The transport reaction was initiated by addition of 50 μl [^14C]-methyl-α-D-glucopyranoside (^14C-AMG) solution (final concentration, 0.5 mM). After incubation for 2 hours at 37° C., the uptake was stopped by aspiration of the incubation mixture, the cells were washed three times with ice-cold PBS. Then, cells were solubilized with 0.3 N NaOH and aliquots were taken for determination of radioactivity by a liquid scintillation counter. Nonspecific AMG uptake was defined as that which occurred in the presence of 100 μM of phlorizin, a specific inhibitor of sodium-dependent glucose cotransporter. Specific uptake was normalized for the protein concentrations measured by the method of Bradford.

Sprague-Dawley (SD) rats = experiment: Urinary glucose excretion test in rats; format: in vivo, rat; conditions: male SD rats, 30 mg/kg oral gavage, urine collected for 24 hours; daily amount of glucose excreted per individual
Method: 2. Urinary Glucose Excretion Test in Rats Test Compounds:
Compounds described in the above examples were used for the urinary glucose excretion test in rats.
6-week-old male Sprague-Dawley (SD) rats were housed in individual metabolic cages with free access to food and water from 2 days prior to the experiment. On the morning of the experiment, rats were administered vehicle (0.2% carboxymethyl cellulose solution containing 0.2% Tween80) or test compounds (30 mg/kg) by oral gavage at a volume of 10 ml/kg. Then, urine of the rat was collected for 24 hours, and the urine volume was measured. Subsequently, the glucose concentration in urine was quantified using the enzymatic assay kit and the daily amount of glucose excreted in urine per individual was calculated.

## Cc1ccc([C@@H]2O[C@H](CO)[C@@H](O)[C@H](O)[C@H]2O)cc1Cc1ccc(-c2ccc(F)nc2)s1 [Example 120, 1-(β-D-glucopyranosyl)-3-(5-(6-fluoro-3-pyridyl)-2-thienylmethyl)-4-methylbenzene]
Human SGLT2
  IC50: 3.4 nM
Sprague-Dawley (SD) rats
  Urinary glucose: A (A≧2000 mg)

## N#Cc1cccc(-c2ccc(Cc3cc([C@@H]4O[C@H](CO)[C@@H](O)[C@H](O)[C@H]4O)ccc3Cl)s2)c1 [Example 123, 1-(β-D-glucopyranosyl)-4-chloro-3-(5-(3-cyanophenyl)-2-thienylmethyl)benzene]
Human SGLT2
  IC50: 1.4 nM
Sprague-Dawley (SD) rats
  Urinary glucose: A (A≧2000 mg)

## Cc1ccc([C@@H]2O[C@H](CO)[C@@H](O)[C@H](O)[C@H]2O)cc1Cc1ccc(-c2cccc(C#N)c2)s1 [Example 127, 1-(β-D-glucopyranosyl)-3-(5-(3-cyanophenyl)-2-thienylmethyl)-4-methylbenzene]
Human SGLT2
  IC50: 1.3 nM
Sprague-Dawley (SD) rats
  Urinary glucose: A (A≧2000 mg)

## CCc1cccc(-c2ccc(Cc3cc([C@@H]4O[C@H](CO)[C@@H](O)[C@H](O)[C@H]4O)ccc3C)s2)c1 [Example 140]
Human SGLT2
  IC50: 5.9 nM
Sprague-Dawley (SD) rats
  Urinary glucose: B (2000 mg>B≧1000 mg)

## COc1ccc(-c2ccc(Cc3cc([C@@H]4O[C@H](CO)[C@@H](O)[C@H](O)[C@H]4O)ccc3C)s2)cc1 [Example 144]
Human SGLT2
  IC50: 4.1 nM
Sprague-Dawley (SD) rats
  Urinary glucose: B (2000 mg>B≧1000 mg)

## Cc1ccc([C@@H]2O[C@H](CO)[C@@H](O)[C@H](O)[C@H]2O)cc1Cc1ccc(-c2cccc(F)n2)s1 [Example 146]
Human SGLT2
  IC50: 2.2 nM
Sprague-Dawley (SD) rats
  Urinary glucose: A (A≧2000 mg)

## Cc1ccc([C@@H]2O[C@H](CO)[C@@H](O)[C@H](O)[C@H]2O)cc1Cc1ccc(-c2ccc(F)s2)s1 [Example 148]
Human SGLT2
  IC50: 2.8 nM
Sprague-Dawley (SD) rats
  Urinary glucose: B (2000 mg>B≧1000 mg)

## Cc1ccc([C@@H]2O[C@H](CO)[C@@H](O)[C@H](O)[C@H]2O)cc1Cc1ccc(-c2ccc(C#N)cc2)s1 [Example 151]
Human SGLT2
  IC50: 2.5 nM
Sprague-Dawley (SD) rats
  Urinary glucose: B (2000 mg>B≧1000 mg)

## OC[C@H]1O[C@@H](c2ccc(Cl)c(Cc3ccc(-c4cccc(F)n4)s3)c2)[C@H](O)[C@@H](O)[C@@H]1O [Example 156]
Human SGLT2
  IC50: 1.1 nM
Sprague-Dawley (SD) rats
  Urinary glucose: A (A≧2000 mg)

## OC[C@H]1O[C@@H](c2ccc(Cl)c(Cc3ccc(-c4ccc(F)nc4)s3)c2)[C@H](O)[C@@H](O)[C@@H]1O [Example 168, 1-(β-D-glucopyranosyl)-4-chloro-3-(5-(6-fluoro-3-pyridyl)-2-thienylmethyl)benzene]
Human SGLT2
  IC50: 2.3 nM
Sprague-Dawley (SD) rats
  Urinary glucose: A (A≧2000 mg)

## COc1ccc(-c2ccc(Cc3cc([C@@H]4O[C@H](CO)[C@@H](O)[C@H](O)[C@H]4O)ccc3Cl)s2)cn1 [Example 169, 1-(β-D-glucopyranosyl)-4-chloro-3-(5-(6-methoxy-3-pyridyl)-2-thienylmethyl)benzene]
Human SGLT2
  IC50: 3.6 nM
Sprague-Dawley (SD) rats
  Urinary glucose: B (2000 mg>B≧1000 mg)

## COc1cccc(-c2ccc(Cc3cc([C@@H]4O[C@H](CO)[C@@H](O)[C@H](O)[C@H]4O)ccc3Cl)s2)n1 [Example 170, 1-(β-D-glucopyranosyl)-4-chloro-3-(5-(6-methoxy-2-pyridyl)-2-thienylmethyl)benzene]
Human SGLT2
  IC50: 3.5 nM
Sprague-Dawley (SD) rats
  Urinary glucose: B (2000 mg>B≧1000 mg)

## Cc1ccc([C@@H]2O[C@H](CO)[C@@H](O)[C@H](O)[C@H]2O)cc1Cc1ccc(-c2ccc(F)c(F)c2)s1 [Example 177, 1-(β-D-glucopyranosyl)-3-(5-(3,4-difluorophenyl)-2-thienylmethyl)-4-methylbenzene]
Human SGLT2
  IC50: 6.7 nM
Sprague-Dawley (SD) rats
  Urinary glucose: A (A≧2000 mg)

## OC[C@H]1O[C@@H](c2ccc(Cl)c(Cc3ccc(-c4cccc(C(F)F)c4)s3)c2)[C@H](O)[C@@H](O)[C@@H]1O [Example 178, 1-(β-D-glucopyranosyl)-4-chloro-3-(5-(3-difluoromethylphenyl)-2-thienylmethyl)benzene]
Human SGLT2
  IC50: 5.1 nM
Sprague-Dawley (SD) rats
  Urinary glucose: B (2000 mg>B≧1000 mg)

## N#Cc1cccc(-c2ccc(Cc3cc([C@@H]4O[C@H](CO)[C@@H](O)[C@H](O)[C@H]4O)ccc3F)s2)c1 [Example 189, 1-(β-D-glucopyranosyl)-4-fluoro-3-(5-(3-cyanophenyl)-2-thienylmethyl)benzene]
Human SGLT2
  IC50: 2.4 nM
other
  melting point: 127 to 129 °C
Sprague-Dawley (SD) rats
  Urinary glucose: B (2000 mg>B≧1000 mg)

## OC[C@H]1O[C@@H](c2ccc(F)c(Cc3ccc(-c4nccs4)s3)c2)[C@H](O)[C@@H](O)[C@@H]1O [Example 190, 1-(β-D-glucopyranosyl)-4-fluoro-3-(5-(2-thiazolyl)-2-thienylmethyl)benzene]
Human SGLT2
  IC50: 3.1 nM
other
  melting point: 161.5 to 162 °C

## OC[C@H]1O[C@@H](c2ccc(Cl)c(Cc3ccc(-c4ccc(F)cn4)s3)c2)[C@H](O)[C@@H](O)[C@@H]1O [Example 194, 1-(β-D-glucopyranosyl)-4-chloro-3-(5-(5-fluoropyridin-2-yl)-2-thienylmethyl)benzene]
Human SGLT2
  IC50: 2.6 nM
Sprague-Dawley (SD) rats
  Urinary glucose: A (A≧2000 mg)

## OC[C@H]1O[C@@H](n2cc(Cc3cc4ccccc4s3)c3ccccc32)[C@H](O)[C@@H](O)[C@@H]1O [Example 195, 1-(β-D-glucopyranosyl)-3-(benzo[b]thiophen-2-ylmethyl)indole]
Sprague-Dawley (SD) rats
  Urinary glucose: B (2000 mg>B≧1000 mg)

## COc1c(Cc2ccc(-c3ccccc3)s2)cc([C@@H]2O[C@H](CO)[C@@H](O)[C@H](O)[C@H]2O)c2ccccc12 [Example 265, 1-(β-D-glucopyranosyl)-3-(5-phenyl-2-thienylmethyl)-4-methoxynaphthalene]
Human SGLT2
  IC50: 3.4 nM

## COc1c(Cc2ccc(-c3ncccn3)s2)cc([C@@H]2O[C@H](CO)[C@@H](O)[C@H](O)[C@H]2O)c2ccccc12 [Example 266]
Human SGLT2
  IC50: 3.2 nM

## COc1c(Cc2ccc(-c3cccc(C#N)c3)s2)cc([C@@H]2O[C@H](CO)[C@@H](O)[C@H](O)[C@H]2O)c2ccccc12 [Example 267]
Human SGLT2
  IC50: 1.5 nM

## COc1c(Cc2ccc(-c3cccc(F)n3)s2)cc([C@@H]2O[C@H](CO)[C@@H](O)[C@H](O)[C@H]2O)c2ccccc12 [Example 268]
Human SGLT2
  IC50: 2.5 nM

From patent US8222219B2, “Glucopyranoside compound” (Mitsubishi Tanabe Pharma Corporation, priority 2003, dated 2012)
